Measured values reported in patent EP0986381B1, “USE OF DITERPENES LIKE HYPOESTOXIDES FOR THE MANUFACTURE OF A MEDICAMENT FOR IMMUNOSUPPRESSION, ANTICANCER AND ANTIVIRAL TREATMENT” (Immune Modulation, Inc., priority 1997, dated 1998).

Tests used:
human PBMCs = assay: Toxicity on human PBMC, trypan blue dye exclusion; assay type: cell-based; conditions: 1.25, 2.5 and 5 µg/mL; 2, 5 and 7 days
Protocol: In order to determine if JO-4 was toxic on human cells in vitro, human PBMCs were cultured in the absence or presence of varying concentrations of JO-4 (1.25, 2.5, and 5 µg/mL) for different days (2, 5 and 7 days). At the end of each incubation period, viability of cells was determined by trypan blue dye exclusion method.

[1] = tested on: mouse malignant melanoma cells (B16-F1); assay: Colorimetric MTT cytotoxicity assay, B16-F1; assay type: cell-based; conditions: B16-F1, 72 hours, read-out: IC50 concentration (cytotoxicity)
Protocol: (§1) The following materials and methods were employed in the non-limiting Examples set out below. Tumor cells: Human cervical epitheloid carcinoma (HeLa), human renal clear cell carcinoma (CAKI-1), human malignant melanoma (RPMI-7951) and mouse malignant melanoma (B16-F1) were procured from ATCC (Rockville, MD) and maintained in vitro with MEM medium (Mediatech, Inc., Herndon, VA) supplemented with 10% heat-inactivated fetal bovine serum (American Qualex, San Clemente, CA), 10mM glutamine, 100 U/ml penicillin, and 100 µg/ml streptomycin (Sigma Chemicals, Saint Louis, MO) (complete medium). […] Cell viability was assessed by trypan blue dye exclusion test and the cell number was adjusted to required concentration. Colorimetric MTT assay: Cytotoxic effects of the hypoestoxide compounds of formulas I and II (JO-4A) were determined in vitro by a colorimetric assay (Mosmann, T., J. Immunol. Methods, 65: 55-63, 1983). […] Mixing with a multichannel pipetter dissolved the dark blue crystals and the absorbance was measured at 545-650 nm using an ELISA plate reader. […] The tumors were measured with a microcaliper, and the tumor volume was calculated by the formula: Length x width x height x 0.5236 (Jungwirth, A. et al., Proc. Natl. Acad. Sci. USA, 94:5810-5813, 1997). […]

[2] = tested on: human cervical epitheloid carcinoma (HeLa) cells; assay: Colorimetric MTT cytotoxicity assay, HeLa; assay type: cell-based; conditions: 72 hours, read-out: IC50 (drug concentration capable of inducing 50% cytotoxicity)
Protocol: as §1

[3] = tested on: HIV-1 isolate from a patient; assay: In vitro HIV-1 replication assay in PBMC, p24 antigen EIA; assay type: cell-based, Human Immunodeficiency Virus type 1; conditions: Human immunodeficiency virus 1, 168 h, PHA-activated human PBMC, 7 days
Protocol: In Vitro HIV-1 Replication Assay: A standardized peripheral blood mononuclear cell culture assay for the determination of drug susceptibilities of clinical human HIV-1 isolates was utilized (Japour AJ et al. Antimicro Agents Chemother 1993; 37:1095-1101). Peripheral blood mononuclear cells (2 x 10^6 cells/ml) were stimulated with PHA (5 µg/ml) in complete culture medium at 37°C, in a 5% CO2-95% air-humidified incubator for 72 hours. The 3-day-old PHA-stimulated PBMC was sedimented at 400 g for 10 min at 20-24°C. Supernatant was removed and discarded. The cells were resuspended in complete culture medium supplemented with 3% IL-2. Cell viability was determined with 0.4% trypan blue. Viability was greater than 85%. Cell concentration was adjusted to 4x10^6/ml. Cells were dispensed in 50 µl volumes (2x10^5/well) into 96 well microtiter plates containing 50 µl complete culture medium. HIV-1 infected cultures were initiated with a patient's HIV-1 isolate (50 µl/well) at a multiplicity of infection (MOI) of 0.05 and 0.1 respectively. JO-4A was added to wells in 50 µl volumes at varying concentrations (0.0001 µM - 0.5 µM). The plates were incubated at 37°C and 5% CO2 in humidified chamber for 7 days. On day 4, half of the spent medium (100 µl) was discarded, and 50 µl of fresh complete medium and 50 µl of fresh JO-4A (varying concentrations as above) were added to wells containing spent JO-4A. […]

[4] = Colorimetric MTT cytotoxicity assay, normal cervical ectoepithelial cells; assay type: cell-based; conditions: human, crec-ec cells

Compound	toxicity to lymphocytes (human PBMCs)	IC50 [1]	IC50 [2]	IC50 [3]	cytotoxicity ([4]; at the IC50 dose for HeLa (between 10 µM and 12.5 µM), read-out: cytotoxic effect)	CC50 at 72 h ([4]; normal cervical ectoepithelial cells, 72 hours, read-out: IC50 (cytotoxicity))
C=C1C(=O)C[C@H]2C[C@@H]3O[C@@]3(C)CC[C@@H]3O[C@@]3(C)C[C@@H](OC(C)=O)[C@H]1C2(C)C [JO-4, hypoestoxide]	not toxic					
C=C1C(=O)CC2CC3OC3(C)CCC3OC3(C)CC(O)C1C2(C)C (stereo not drawn) [JO-4A]		6.25 to 12.5 µM	10 to 12.5 µM	0.0001 to 0.01 µM	6%	> 100 µM
